Results as given in US7462598B2, “Antimicrobial theta defensins, analogs thereof, and methods of use” (priority 2002, dated 2008).
Bridge positions count the residues as written; N and C are the ends. Square brackets hold non-standard residues; d marks the D form. Peptide text beside a SMILES is read from it. hSer = N[C@@H](CCO)C(=O)O

Key:
S. aureus 502a [1] = test: Cell-suspension microbicidal assay (MMC); assay type: cell-based, Staphylococcus aureus; conditions: for MMC, S. aureus: lowest concentration that reduced cell viability by 99.9%, 10 mM PIPES, 5 mM glucose, pH 7.4, 2 h 37° C.
How it was run: (§1)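 Log-phase microbes (2×10^6 CFU/ml) exposed to two-fold peptide dilutions (0.062-8.0 μg/ml) in 10 mM PIPES, 5 mM glucose, pH 7.4, 2 h at 37 °C, then diluted 1:10 to 1:10^6 in broth and grown 24-48 h. MMC is the lowest concentration giving ≥99.9% killing (no pellet at 1:10^3).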

E. coli ML35 [2] = test: Cell-suspension microbicidal assay (MMC); assay type: cell-based, Escherichia coli; conditions: for MMC, E. coli: lowest concentration that reduced cell viability by 99.9%, 10 mM PIPES, 5 mM glucose, pH 7.4, 2 h 37° C.
How it was run: as §1

C. albicans 16820 = test: Cell-suspension microbicidal assay (MMC); assay type: cell-based, Candida albicans; conditions: for MMC, C. albicans: lowest concentration that reduced cell viability by 99.9%, 10 mM PIPES, 5 mM glucose, pH 7.4, 2 h 37° C.
How it was run: as §1

[3] = system: S. aureus 502a, E. coli ML35, and C. albicans 16820; test: Cell-suspension microbicidal assay, statements across the test organisms (lowest MMC, overall ranges); assay type: cell-based; conditions: for M: peptide concentration that kill 99.9% of either S. aureus, E. coli, or C. albicans, lowest MMC value
How it was run: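 Log-phase organisms (2×10^6 CFU/ml) were exposed for 2 h at 37° C. to peptide (0.062–8.0 μg/ml final) in 10 mM PIPES/5 mM glucose, pH 7.4, then serially diluted in broth and grown 24–48 h. MMC was defined as ≥99.9% killing (no pellet at 1:10^3). SI was calculated as concentration giving 3% hemolysis in PBS divided by lowest MMC.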

S. aureus 502a [4] = assay type: cell-based, Staphylococcus aureus; conditions: 502a
Method: Dose-dependent staphylocidal activity of each peptide was determined in assays containing 10% normal human serum. Percentages of killing are relative to activities of peptide-containing incubations in which serum was omitted.
(§2) To determine the effects of serum, salt, calcium chloride and magnesium chloride on microbicidal activities, peptide activities were determined in assays containing varying ionic strength, divalent cations, and serum. The effect of serum on staphylocidal activity of each peptide was determined by incubating 1×10^6 CFU/ml of S. aureus 502a with increasing peptide concentrations (0.5-4 μg/ml) in 10 mM PIPES, pH 7.4, containing 10% normal human serum for 2 h at 37° C. The effect of sodium chloride on staphylocidal activities was assessed with 5 μg/ml of each peptide in 10 mM PIPES, pH 7.4, containing varying concentrations of sodium chloride (0-160 mM). Effects of divalent cations, CaCl2, or MgCl2 (0-5.6 mM) were assessed in microbicidal assays against E. coli ML35. Bactericidal activities were determined by colony counting (see Example II), and microbicidal potencies were expressed as percent killing as follows:
(§3) [formula] where A=surviving bacteria (CFU/ml) after initial incubation with each peptide in buffer containing serum, salt, or divalent cations and Ao=bacterial CFU/ml in the “no-peptide” controls.

E. coli ML35 [5] = test: Bactericidal activity in divalent cations (CaCl2, MgCl2); assay type: cell-based, Escherichia coli
Method: as §2, §3

E. coli ML35 [6] = test: Membrane permeabilization assay (ONPG hydrolysis); assay type: cell-based, Escherichia coli; conditions: for ONPG hydrolysis: rates at 1 μg/ml concentration of each peptide
How it was run: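 ONPG hydrolysis by log-phase E. coli ML35 (1×10^6 CFU/ml) in 10 mM PIPES pH 7.4 with 3 mM ONPG, peptides at 0-8.0 μg/ml final; A405 followed for 60 min. Control: 0-4 μg/ml peptide incubated with recombinant β-galactosidase and 3 mM ONPG.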

[7] = molecular target: T1, recombinant β-galactosidase (Escherichia coli, UniProt P00722); test: Inhibition of purified β-galactosidase (ONPG hydrolysis); assay type: biochemical
T1 construct: gift from Dr. Donald P. Satchell, University of California, Irvine, Department of Pathology
Method: Dose-dependent rates of ONPG hydrolysis were determined using 10 nM of purified β-galactosidase.
The effect of each peptide on β-galactosidase-dependent ONPG hydrolysis was determined by incubating 0-4 μg/ml of each peptide with recombinant β-galactosidase (a gift from Dr. Donald P. Satchell, University of California, Irvine, Department of Pathology) and 3 mM ONPG as described above.

S. aureus 502a [8] = assay type: cell-based, Staphylococcus aureus; conditions: physiologic salt / various concentrations of salt; FIG. 6
Method: The activity of each peptide (5 μg/ml) was determined in assays containing increasing concentrations of sodium chloride. Staphylocidal activities were expressed as percentages of killing obtained in the absence of additional NaCl.
as §2, §3

[9] = system: S. aureus 502a, E. coli ML35, C. albicans 16820, and C. neoformans 271a; test: Agar diffusion assay, statements across the test organisms; assay type: cell-based; conditions: against E. coli, FIG. 18A-D
Method: Briefly, 10-μl wells were bored in a 9-cm^2 plate of agarose, buffered with 10 mM 1,4-piperazinebis(ethanesulfonic acid) (PIPES), pH 7.4, containing 5 mM glucose, and seeded with 1×10^6 mid-log phase cells. Five-μl aliquots of peptides, dissolved in 0.01% HOAc at 10-300 μg/ml, were added to each well. After incubation at 37° C. for 2 h, the seeded agar was overlaid with molten agarose containing 6% trypticase soy broth (for bacteria) or Sabouraud dextrose broth (for fungi). Plates were incubated at 37° C. for 18-24 h, and antimicrobial activity was determined by measuring the diameter of clearing around each well.

T1 sequence (P00722 2-1024): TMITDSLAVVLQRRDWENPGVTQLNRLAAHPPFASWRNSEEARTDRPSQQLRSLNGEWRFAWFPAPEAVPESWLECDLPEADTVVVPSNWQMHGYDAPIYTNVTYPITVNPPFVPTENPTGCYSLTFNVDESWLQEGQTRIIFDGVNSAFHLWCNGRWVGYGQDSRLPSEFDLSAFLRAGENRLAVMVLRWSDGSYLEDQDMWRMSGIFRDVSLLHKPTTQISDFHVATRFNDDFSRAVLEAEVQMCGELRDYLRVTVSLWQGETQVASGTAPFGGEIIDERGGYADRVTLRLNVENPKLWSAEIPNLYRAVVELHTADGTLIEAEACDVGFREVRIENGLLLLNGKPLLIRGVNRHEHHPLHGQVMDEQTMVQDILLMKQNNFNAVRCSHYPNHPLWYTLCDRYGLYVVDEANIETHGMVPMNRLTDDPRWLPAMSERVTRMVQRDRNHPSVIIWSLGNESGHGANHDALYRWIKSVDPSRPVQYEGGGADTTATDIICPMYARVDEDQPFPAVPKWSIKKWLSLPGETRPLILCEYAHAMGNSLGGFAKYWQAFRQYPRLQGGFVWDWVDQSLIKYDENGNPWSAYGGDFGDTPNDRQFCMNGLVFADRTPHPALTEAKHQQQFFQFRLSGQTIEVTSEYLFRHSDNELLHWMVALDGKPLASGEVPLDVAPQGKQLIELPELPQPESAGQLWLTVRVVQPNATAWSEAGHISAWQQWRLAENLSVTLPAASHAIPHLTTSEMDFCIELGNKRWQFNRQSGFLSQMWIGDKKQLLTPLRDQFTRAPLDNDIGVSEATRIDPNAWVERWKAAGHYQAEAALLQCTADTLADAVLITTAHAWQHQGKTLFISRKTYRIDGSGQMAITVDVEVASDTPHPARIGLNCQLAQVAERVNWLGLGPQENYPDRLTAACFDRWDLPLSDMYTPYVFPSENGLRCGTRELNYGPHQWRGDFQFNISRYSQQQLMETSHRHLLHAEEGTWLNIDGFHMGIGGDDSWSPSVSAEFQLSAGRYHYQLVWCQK

CC(C)C[C@H](NC(=O)[C@@H]1CSSC[C@H](NC(=O)[C@H](CCCNC(=N)N)NC(=O)[C@H](C)NC(=O)[C@@H](NC(=O)CNC(=O)[C@@H](N)CCCNC(=N)N)C(C)C)C(=O)N[C@@H](CC(C)C)C(=O)N[C@H]2CSSC[C@H](NC(=O)[C@H](C(C)C)NC(=O)CNC(=O)[C@H](CCCNC(=N)N)NC(=O)[C@H](CCCNC(=N)N)NC2=O)C(=O)N[C@@H](CCCNC(=N)N)C(=O)N1)C(=O)N[C@@H](C)C(=O)N[C@@H](CCCNC(=N)N)C(N)=O [5:3 aRTD-3-NH] (H-RGVARCLCRRGVCRCLAR-NH2; disulfide 6-15, 8-13; N-terminus assumed)
MMC, S. aureus (S. aureus 502a [1]): 1.0 µg/mL | fold lower activity against E. coli than RTD-3 and PG-1 (E. coli ML35 [2]; from MMC, Table 2): 2-3 fold | fold lower activity against C. albicans than RTD-3 and PG-1 (C. albicans 16820; from MMC, Table 2): 2-3 fold | MMC, C. albicans (C. albicans 16820): 2.3 µg/mL | M [3]: 1 µg/mL | inhibition of bactericidal activity in serum (S. aureus 502a [4]): 20-50% | effect of divalent cations on bactericidal activity (in words) (E. coli ML35 [5]; various concentrations of divalent cations): completely inhibited | ONPG hydrolysis (E. coli ML35 [6]): 3.9 (A405/sec) · 10^−5

CC[C@H](C)[C@@H]1NC(=O)[C@@H]2CSSC[C@H](NC(=O)[C@H](CCCNC(=N)N)NC(=O)[C@@H]3CSSC[C@H](NC1=O)C(=O)N[C@@H]([C@@H](C)O)C(=O)N[C@@H](CCCNC(=N)N)C(=O)NCC(=O)N[C@@H](Cc1ccccc1)C(=O)N3)C(=O)N[C@@H]([C@@H](C)CC)C(=O)N[C@H]1CSSC[C@H](NC(=O)[C@H](Cc3ccccc3)NC(=O)CNC(=O)[C@H](CCCNC(=N)N)NC(=O)[C@H]([C@@H](C)O)NC1=O)C(=O)N[C@@H](CCCNC(=N)N)C(=O)N2 [RTD-2] (cyclo(CICTRGFCRCICTRGFCR); disulfide 1-10, 3-8, 12-17)
MMC, S. aureus (S. aureus 502a [1]): 1.5 µg/mL | MMC, E. coli (E. coli ML35 [2]): 2.3 µg/mL | MMC, C. albicans (C. albicans 16820): 3.0 µg/mL | M [3]: 1.5 µg/mL | reduction of the rate of ONPG hydrolysis on addition of RTD-2 (E. coli ML35 [6]; RTD-2 1.0 μg/ml final added after 30 min to E. coli permeabilized with 1 μg/ml RTD-1, FIG. 11B): approximately 30% | ONPG hydrolysis (E. coli ML35 [6]): 6.3 (A405/sec) · 10^−5 | reduction of the rate of ONPG hydrolysis by purified β-galactosidase ([7]; 2 μg/ml, relative to incubations without peptide): 80%

CC[C@H](C)[C@@H]1NC(=O)[C@@H]2CSSC[C@H](NC(=O)[C@H](CCCNC(=N)N)NC(=O)[C@@H](NC(=O)[C@H](Cc3ccccc3)NC(=O)CN)CSSC[C@@H](C(=O)N[C@H](C(=O)N[C@@H](CCCNC(=N)N)C(=O)O)[C@@H](C)O)NC1=O)C(=O)N[C@@H]([C@@H](C)CC)C(=O)N[C@H]1CSSC[C@H](NC(=O)[C@H](Cc3ccccc3)NC(=O)CNC(=O)[C@H](CCCNC(=N)N)NC(=O)[C@H]([C@@H](C)O)NC1=O)C(=O)N[C@@H](CCCNC(=N)N)C(=O)N2 [aRTD-2-OH] (H-GFCRCICTRGFCRCICTR-OH; disulfide 3-16, 5-14, 7-12; N-terminus assumed)
MMC, S. aureus (S. aureus 502a [1]): 1.5 µg/mL | fold reduction of potency against E. coli versus native cyclic peptide (E. coli ML35 [2]; versus RTD-2): at least 3 fold | MMC, C. albicans (C. albicans 16820): 3.0 µg/mL | 99.9% kill against one of the bacterial organisms ([3]; at 8 μg/ml, the highest concentration tested): did not achieve a 99.9% kill | M [3]: 1.5 µg/mL | effect of salt on microbicidal activity (in words) (S. aureus 502a [8]): most inhibited | inhibition of bactericidal activity by calcium chloride (E. coli ML35 [5]; physiologic concentration of calcium chloride (1.4 mM)): completely ablated | ONPG hydrolysis (E. coli ML35 [6]): 4.3 (A405/sec) · 10^−5

CC(C)[C@@H]1NC(=O)[C@@H]2CSSC[C@H](NC(=O)[C@H](CCCNC(=N)N)NC(=O)[C@@H](NC(=O)CNC(=O)CN)CSSC[C@@H](C(=O)N[C@@H](CCCNC(=N)N)C(=O)N[C@@H](CCCNC(=N)N)C(N)=O)NC1=O)C(=O)N[C@@H](Cc1ccc(O)cc1)C(=O)N[C@H]1CSSC[C@H](NC(=O)[C@H](Cc3ccccc3)NC(=O)[C@H](CCCNC(=N)N)NC(=O)[C@H](CCCNC(=N)N)NC(=O)[C@H](CCCNC(=N)N)NC1=O)C(=O)N[C@@H](C(C)C)C(=O)N2 [3cys 2:2 PG-1-NH] (H-GGCRCYCRRRFCVCVCRR-NH2; disulfide 3-16, 5-14, 7-12; N-terminus assumed)
fold higher activity against S. aureus than 3cys 3:1 PG-1-NH (S. aureus 502a [1]; from MMC, Table 2): 6-7 fold | MMC, S. aureus (S. aureus 502a [1]): 0.3 µg/mL | MMC, E. coli (E. coli ML35 [2]): 1.0 µg/mL | fold higher activity against C. albicans than 3cys 3:1 PG-1-NH (C. albicans 16820; from MMC, Table 2): 2-3 fold | MMC, C. albicans (C. albicans 16820): 1.5 µg/mL | M [3]: 0.25 µg/mL | ONPG hydrolysis (E. coli ML35 [6]): 15.3 (A405/sec) · 10^−5 | inhibition of β-galactosidase activity ([7]; peptide 0-4 μg/ml, concentration not given, FIG. 10): potent inhibitor

CC[C@H](C)[C@@H]1NC(=O)[C@@H]2CSSC[C@H](NC(=O)[C@H](CCCNC(=N)N)NC(=O)[C@@H]3CSSC[C@H](NC1=O)C(=O)N[C@@H]([C@@H](C)O)C(=O)N[C@@H](CCCNC(=N)N)C(=O)NCC(=O)N[C@@H](Cc1ccccc1)C(=O)N3)C(=O)N[C@@H](CC(C)C)C(=O)N[C@H]1CSSC[C@H](NC(=O)[C@H](C(C)C)NC(=O)CNC(=O)[C@H](CCCNC(=N)N)NC(=O)[C@H](CCCNC(=N)N)NC1=O)C(=O)N[C@@H](CCCNC(=N)N)C(=O)N2 [recombinant RTD-1] (cyclo(GFCRCLCRRGVCRCICTR); disulfide 3-16, 5-14, 7-12)
antimicrobial activity compared with synthetic / native RTD-1 [9]: virtually indistinguishable

CC[C@H](C)[C@@H]1NC(=O)[C@@H]2CSSC[C@H](NC(=O)[C@H](CCCNC(=N)N)NC(=O)[C@@H](NC(=O)[C@H](Cc3ccccc3)NC(=O)CN)CSSC[C@@H](C(=O)N[C@H](C(=O)N[C@@H](CCCNC(=N)N)C(=O)N[C@@H](CCO)C(=O)O)[C@@H](C)O)NC1=O)C(=O)N[C@@H](CC(C)C)C(=O)N[C@H]1CSSC[C@H](NC(=O)[C@H](C(C)C)NC(=O)CNC(=O)[C@H](CCCNC(=N)N)NC(=O)[C@H](CCCNC(=N)N)NC1=O)C(=O)N[C@@H](CCCNC(=N)N)C(=O)N2 [aRTD-1-Hse] (H-GFCRCLCRRGVCRCICTR[hSer]-OH; disulfide 3-16, 5-14, 7-12 (inferred); N-terminus and C-terminus assumed)
antimicrobial activity compared with synthetic / native RTD-1 [9]: more antimicrobial than native RTD-1
